According to article doi:10.1101/2023.03.24.534094v2 (biorxiv, 2023):
Like-named read-outs stand apart in the source and are kept apart here.

Tests used:
Assay in all cases: biochemical
MSK1b = MSK1b (Homo sapiens, UniProt O75582)
CaMK1d = CaMK1d (Homo sapiens, UniProt Q8IU85)
PAK4 = PAK4 (Homo sapiens, UniProt O96013)
CaMK2d = CaMK2d (Homo sapiens, UniProt Q13557)
DCAMKL1 = target: T1, DCAMKL1 (Homo sapiens, UniProt O15075)
T1 sequence (O15075 1-740): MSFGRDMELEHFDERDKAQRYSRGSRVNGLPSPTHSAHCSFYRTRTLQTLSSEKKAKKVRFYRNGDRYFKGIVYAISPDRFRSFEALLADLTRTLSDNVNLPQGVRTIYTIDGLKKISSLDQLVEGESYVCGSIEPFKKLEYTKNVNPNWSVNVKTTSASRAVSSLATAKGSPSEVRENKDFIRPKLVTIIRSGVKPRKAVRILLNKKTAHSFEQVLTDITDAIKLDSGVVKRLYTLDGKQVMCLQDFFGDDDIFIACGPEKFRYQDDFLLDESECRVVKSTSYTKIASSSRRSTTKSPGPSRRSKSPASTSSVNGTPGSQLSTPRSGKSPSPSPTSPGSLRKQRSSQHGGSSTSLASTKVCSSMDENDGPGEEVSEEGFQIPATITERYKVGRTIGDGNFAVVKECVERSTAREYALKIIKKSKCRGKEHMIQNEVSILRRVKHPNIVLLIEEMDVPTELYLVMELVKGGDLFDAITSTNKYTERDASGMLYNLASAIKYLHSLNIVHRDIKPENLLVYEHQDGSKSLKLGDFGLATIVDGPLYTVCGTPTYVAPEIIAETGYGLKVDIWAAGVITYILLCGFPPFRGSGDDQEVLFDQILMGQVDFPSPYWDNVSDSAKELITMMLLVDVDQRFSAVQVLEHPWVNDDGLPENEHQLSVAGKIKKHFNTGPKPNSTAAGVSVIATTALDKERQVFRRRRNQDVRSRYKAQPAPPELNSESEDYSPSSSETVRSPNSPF

EphB3 = target: T2, EphB3 (Homo sapiens, UniProt P54753)
T2 sequence (P54753 1-998): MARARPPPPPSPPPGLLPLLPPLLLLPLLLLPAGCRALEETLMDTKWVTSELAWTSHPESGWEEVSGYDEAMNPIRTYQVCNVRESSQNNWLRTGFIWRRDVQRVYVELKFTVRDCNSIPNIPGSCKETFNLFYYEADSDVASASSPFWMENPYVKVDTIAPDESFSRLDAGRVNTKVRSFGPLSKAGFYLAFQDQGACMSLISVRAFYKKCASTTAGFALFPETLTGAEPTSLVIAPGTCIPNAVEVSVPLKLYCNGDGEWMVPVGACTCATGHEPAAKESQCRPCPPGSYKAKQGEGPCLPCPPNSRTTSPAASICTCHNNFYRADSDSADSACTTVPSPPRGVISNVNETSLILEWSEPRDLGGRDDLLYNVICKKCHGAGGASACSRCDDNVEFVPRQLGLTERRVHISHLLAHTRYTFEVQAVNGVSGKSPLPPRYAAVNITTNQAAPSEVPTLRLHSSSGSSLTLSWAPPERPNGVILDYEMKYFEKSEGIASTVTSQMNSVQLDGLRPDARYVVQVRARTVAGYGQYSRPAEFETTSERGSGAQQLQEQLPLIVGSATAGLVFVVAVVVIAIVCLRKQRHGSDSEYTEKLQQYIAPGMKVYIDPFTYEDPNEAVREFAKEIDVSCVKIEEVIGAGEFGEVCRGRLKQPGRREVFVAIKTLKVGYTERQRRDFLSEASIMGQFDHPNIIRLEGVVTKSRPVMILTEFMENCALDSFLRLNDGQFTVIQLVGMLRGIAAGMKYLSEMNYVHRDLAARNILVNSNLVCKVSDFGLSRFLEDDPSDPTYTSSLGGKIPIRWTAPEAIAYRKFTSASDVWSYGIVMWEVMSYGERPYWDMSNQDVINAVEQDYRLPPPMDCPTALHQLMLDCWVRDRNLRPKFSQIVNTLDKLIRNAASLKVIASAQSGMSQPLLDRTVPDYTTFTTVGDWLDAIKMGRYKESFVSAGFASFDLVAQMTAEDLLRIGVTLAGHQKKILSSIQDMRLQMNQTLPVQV

NQO2A = target: T3, NQO2A (Homo sapiens, UniProt P16083)
T3 sequence (P16083 1-231): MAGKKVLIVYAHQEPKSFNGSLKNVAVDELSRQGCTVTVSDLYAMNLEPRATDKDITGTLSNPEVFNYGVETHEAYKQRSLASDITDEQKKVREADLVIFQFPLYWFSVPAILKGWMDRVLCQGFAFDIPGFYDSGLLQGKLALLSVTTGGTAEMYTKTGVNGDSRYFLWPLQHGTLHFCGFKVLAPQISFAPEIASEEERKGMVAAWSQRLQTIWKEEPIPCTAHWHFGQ

Sequence of PAK4 (O96013 whole entry): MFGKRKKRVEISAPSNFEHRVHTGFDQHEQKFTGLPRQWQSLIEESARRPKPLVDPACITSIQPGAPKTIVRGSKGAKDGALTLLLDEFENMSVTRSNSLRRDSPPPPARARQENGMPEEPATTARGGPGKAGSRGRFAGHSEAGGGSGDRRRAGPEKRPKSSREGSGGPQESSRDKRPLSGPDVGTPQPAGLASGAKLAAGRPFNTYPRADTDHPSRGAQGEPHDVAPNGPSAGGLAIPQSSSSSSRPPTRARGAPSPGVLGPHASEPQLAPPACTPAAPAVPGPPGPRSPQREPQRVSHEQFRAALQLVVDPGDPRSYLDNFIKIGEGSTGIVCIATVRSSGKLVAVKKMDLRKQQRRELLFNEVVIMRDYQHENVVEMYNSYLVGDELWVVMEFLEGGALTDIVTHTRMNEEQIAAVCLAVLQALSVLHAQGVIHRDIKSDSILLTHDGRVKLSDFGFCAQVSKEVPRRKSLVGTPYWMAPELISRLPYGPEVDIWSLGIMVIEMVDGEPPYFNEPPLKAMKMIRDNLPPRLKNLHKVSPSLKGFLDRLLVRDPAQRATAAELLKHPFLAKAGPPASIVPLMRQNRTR
Sequence of CaMK1d (Q8IU85 whole entry): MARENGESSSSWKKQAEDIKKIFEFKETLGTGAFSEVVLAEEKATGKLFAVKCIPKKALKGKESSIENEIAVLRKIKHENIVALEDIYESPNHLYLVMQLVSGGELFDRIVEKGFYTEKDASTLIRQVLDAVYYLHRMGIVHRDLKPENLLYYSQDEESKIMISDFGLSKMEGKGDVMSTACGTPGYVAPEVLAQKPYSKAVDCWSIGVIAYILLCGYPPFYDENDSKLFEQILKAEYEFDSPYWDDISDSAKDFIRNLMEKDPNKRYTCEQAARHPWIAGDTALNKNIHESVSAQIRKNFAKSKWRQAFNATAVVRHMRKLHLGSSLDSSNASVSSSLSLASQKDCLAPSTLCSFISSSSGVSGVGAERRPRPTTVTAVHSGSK
Sequence of MSK1b (O75582 whole entry): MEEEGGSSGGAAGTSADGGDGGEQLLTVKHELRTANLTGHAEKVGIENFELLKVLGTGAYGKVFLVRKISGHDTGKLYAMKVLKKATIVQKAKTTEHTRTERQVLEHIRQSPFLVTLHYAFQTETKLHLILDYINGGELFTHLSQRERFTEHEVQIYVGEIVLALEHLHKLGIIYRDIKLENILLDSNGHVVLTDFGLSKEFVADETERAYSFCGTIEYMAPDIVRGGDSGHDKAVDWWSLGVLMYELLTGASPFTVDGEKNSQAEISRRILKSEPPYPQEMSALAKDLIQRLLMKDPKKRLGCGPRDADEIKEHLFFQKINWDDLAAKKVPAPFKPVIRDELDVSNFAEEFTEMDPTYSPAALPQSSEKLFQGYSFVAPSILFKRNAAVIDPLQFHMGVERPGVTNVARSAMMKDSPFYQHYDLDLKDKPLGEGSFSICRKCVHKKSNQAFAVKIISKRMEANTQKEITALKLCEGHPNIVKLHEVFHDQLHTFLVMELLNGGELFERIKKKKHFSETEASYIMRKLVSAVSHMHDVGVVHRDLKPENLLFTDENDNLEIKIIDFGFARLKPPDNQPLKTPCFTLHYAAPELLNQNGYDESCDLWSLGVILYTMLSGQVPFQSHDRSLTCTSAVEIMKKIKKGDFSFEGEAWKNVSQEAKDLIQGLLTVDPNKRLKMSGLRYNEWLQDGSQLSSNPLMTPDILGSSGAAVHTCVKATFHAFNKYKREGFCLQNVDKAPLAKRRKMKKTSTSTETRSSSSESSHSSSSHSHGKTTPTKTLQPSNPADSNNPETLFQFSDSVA
Sequence of CaMK2d (Q13557 whole entry): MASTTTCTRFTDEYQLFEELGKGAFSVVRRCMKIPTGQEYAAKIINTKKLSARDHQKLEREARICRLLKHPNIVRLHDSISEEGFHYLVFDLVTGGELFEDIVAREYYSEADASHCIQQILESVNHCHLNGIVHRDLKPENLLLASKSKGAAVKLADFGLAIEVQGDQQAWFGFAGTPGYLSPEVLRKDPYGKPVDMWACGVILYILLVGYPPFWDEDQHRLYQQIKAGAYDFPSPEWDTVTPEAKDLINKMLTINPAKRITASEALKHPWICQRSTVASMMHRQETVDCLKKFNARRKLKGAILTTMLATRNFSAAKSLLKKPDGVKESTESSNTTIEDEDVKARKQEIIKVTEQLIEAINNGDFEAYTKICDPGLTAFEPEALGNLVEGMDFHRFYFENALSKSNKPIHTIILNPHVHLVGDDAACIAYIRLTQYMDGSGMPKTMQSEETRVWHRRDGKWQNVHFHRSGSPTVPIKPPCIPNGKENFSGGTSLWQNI

`CNc1ncc2cc(-c3ccc(-c4cccc(C)n4)cc3Cl)c(=O)n(CC3OCC(N)CO3)c2n1` (stereo not drawn) [compound 2, G-5555] was tested, and the “dTm G-5555 (2)” value (MSK1b; 10 µM, binder) was 2.0 °C, the “dTm G-5555 (2)” value (CaMK1d; 10 µM, binder) was 4.5 °C and the “dTm G-5555 (2)” value (PAK4; 10 µM, binder) was 3.5 °C. The “dTm G-5555 (2)” value (CaMK2d; 10 µM, binder) was -0.1 °C, the “dTm G-5555 (2)” value (DCAMKL1; 10 µM, binder) was 0.3 °C and the “dTm G-5555 (2)” value (EphB3; 10 µM, binder) was 1.7 °C.

Work on `CNc1ncc2cc(-c3cc(Br)ccc3Cl)c(=O)n(CCCCN)c2n1` [compound 6, 8-(4-Aminobutyl)-6-(5-bromo-2-chlorophenyl)-2-(methylamino)pyrido[2,3-d]pyrimidin-7(8H)-one] yielded a ΔTm at 10 µM (MSK1b; read-out: dTm 6) of 0.3 °C, a ΔTm at 10 µM (CaMK1d; read-out: dTm 6) of 2.1 °C and a ΔTm at 10 µM (PAK4; read-out: dTm 6) of 1.1 °C. It also gave a ΔTm at 10 µM (NQO2A; read-out: dTm 6) of 0 °C, a ΔTm at 10 µM (CaMK2d; read-out: dTm 6) of 0 °C and a ΔTm at 10 µM (DCAMKL1; read-out: dTm 6) of -0.5 °C. For the same molecule, the ΔTm at 10 µM (EphB3; read-out: dTm 6) was 3.5 °C.

`CNc1ncc2cc(-c3cc(F)ccc3F)c(=O)n(CCCCN)c2n1` [compound 5, 8-(4-Aminobutyl)-6-(2,5-difluorophenyl)-2-(methylamino)pyrido[2,3-d]pyrimidin-7(8H)-one] was tested, and the ΔTm at 10 µM (MSK1b; read-out: dTm MR22 (5)) was 1.5 °C, the ΔTm at 10 µM (CaMK1d; read-out: dTm MR22 (5)) was -1.2 °C and the ΔTm at 10 µM (PAK4; read-out: dTm MR22 (5)) was 0.2 °C. The ΔTm at 10 µM (NQO2A; read-out: dTm MR22 (5)) was -0.2 °C, the ΔTm at 10 µM (CaMK2d; read-out: dTm MR22 (5)) was -0.6 °C and the ΔTm at 10 µM (EphB3; read-out: dTm MR22 (5)) was 3.3 °C.

`CNc1ncc2cc(-c3ccccc3Cl)c(=O)n(CCCCN)c2n1` [compound 4, 8-(4-Aminobutyl)-6-(2-chlorophenyl)-2-(methylamino)pyrido[2,3-d]pyrimidin-7(8H)-one] gave a ΔTm at 10 µM (MSK1b; read-out: dTm MR21 (4)) of 2.1 °C, a ΔTm at 10 µM (CaMK1d; read-out: dTm MR21 (4)) of 2.7 °C and a ΔTm at 10 µM (PAK4; read-out: dTm MR21 (4)) of 2.8 °C. For the same molecule, the ΔTm at 10 µM (NQO2A; read-out: dTm MR21 (4)) was -1 °C, the ΔTm at 10 µM (CaMK2d; read-out: dTm MR21 (4)) was 0 °C and the ΔTm at 10 µM (DCAMKL1; read-out: dTm MR21 (4)) was 0.2 °C. The ΔTm at 10 µM (EphB3; read-out: dTm MR21 (4)) was 6 °C.

`CNc1ncc2cc(-c3cc(Br)ccc3Cl)c(=O)n(C[C@H]3OC[C@H](N)CO3)c2n1` [compound 7, 8-(((2r,5r)-5-Amino-1,3-dioxan-2-yl)methyl)-6-(5-bromo-2-chlorophenyl)-2-(methylamino)pyrido[2,3-d]pyrimidin-7(8H)-one] gave a ΔTm at 10 µM (MSK1b; read-out: dTm 7) of 1.1 °C, a ΔTm at 10 µM (CaMK1d; read-out: dTm 7) of 0.4 °C and a ΔTm at 10 µM (PAK4; read-out: dTm 7) of 0.5 °C. For the same molecule, the ΔTm at 10 µM (NQO2A; read-out: dTm 7) was 0.6 °C, the ΔTm at 10 µM (CaMK2d; read-out: dTm 7) was 0.4 °C and the ΔTm at 10 µM (DCAMKL1; read-out: dTm 7) was 1 °C. The ΔTm at 10 µM (EphB3; read-out: dTm 7) was 2.5 °C.
